Measurements taken from patent US10035795B1, “Phenothiazine derivatives having CaM inhibitory activity” (KOREA INSTITUTE OF SCIENCE AND TECHNOLOGY, priority 2017, dated 2018).

Key:
Assay type in all cases: cell-based
U87MG cells = assay: Calcium imaging (Ca2+ imaging): change in the calcium level of the cells, Fura-2 340/380 ratio; settings: 100 μM in HEPES buffer, average 340/380 ratio reactivity for 200 seconds relative to TFP (trifluoperazine) as 100%
Protocol: Calcium Imaging (Ca^2+ Imaging)
Calcium imaging was conducted as follows in order to measure the change in the calcium level in […] (glioblastoma cells) by TFP (trifluoperazine) and the phenothiazine derivative represented by Chemical Formula 1 according to the present invention. First, after placing a polylysine (PDL)-coated coverslip on a 24-well plate, 2×10^4 U87MG cells detached by treating with trypsin were seeded thereupon. On the next day, the coverslip was incubated at room temperature for 1 hour in a Fura-2 solution (5 μM Fura-2 AM, 1 μM pluronic acid in HEPES buffer, pH 7.4) and washed twice with a HEPES buffer (10 mM HEPES, 150 mM NaCl, 3 mM KCl, 2 mM CaCl2, 1 mM MgCl2, 22 mM sucrose, 10 mM glucose, pH 7.4). The washed coverslip was mounted in a bath adapter (bath adapter) and placed under a calcium imaging microscope (Olympus IX71). After connecting a bath line to the bath adapter, the change in the calcium level of the cells was recorded for 300 seconds (4-second intervals; 340 nm, 380 nm, 340/380 nm ratio) by running a calcium imaging program (Imaging Workbench 6.0, Indec Inc.). After flowing a HEPES buffer for 50 seconds for setting of the baseline, a TFP (trifluoperazine) solution or solution of the phenothiazine derivative represented by Chemical Formula 1 (100 μM in HEPES buffer) were flown as test solutions for 100 seconds and then a HEPES buffer was flown again for 150 seconds. All the test solutions were prepared by diluting a 50 mM stock solution to 100 μM with a HEPES buffer. For analysis of the change of intracellular calcium level by the phenothiazine derivative represented by Chemical Formula 1, data files were read using a calcium imaging analysis program (Clampfit 9.2, Axon Inc.) and only the 340/380 ratio values were taken. The values recorded for the first 50 seconds were set to “0” and graphs were rearranged. Then, the average reactivity to the phenothiazine derivative represented by Chemical Formula 1 for 200 seconds was calculated relative to the average reactivity to TFP (trifluoperazine) for 200 seconds as 100%.

lung cancer = assay: cell viability assay, colony formation assay and soft agar colony formation assay
From the text: (§1) TFP is a phenothiazine-based compound mainly used as an antipsychotic [see patent document 1]. Antipsychotics are psychiatric drugs primarily used to manage psychosis such as schizophrenia, bipolar disorder, etc. and also to manage non-psychiatric disorder such as sleep. The antipsychotics tend to block receptors in the brain's dopamine pathways but cover a wide range of drug targets. […] Based on this, cell viability assay, matrigel invasion assay, colony formation assay and soft agar colony formation assay were conducted to investigate whether TFP suppresses lung cancer.

cancer cells = assay: matrigel invasion assay
From the text: as §1

| Compound | Reactivity (%) (U87MG cells) | migration and proliferation of lung cancer (lung cancer) | invasion of cancer cells (cancer cells) |
| --- | --- | --- | --- |
| FC(F)(F)c1ccc2c(c1)N(CCCCN1CCC(N3CCOCC3)CC1)c1ccccc1S2 [Example 41, 4-(1-(4-(2-(trifluoromethyl)-10H-phenothiazine;-10-yl)butyl)piperidin-4-yl)morpholine] | 120 | – | – |
| FC(F)(F)c1ccc2c(c1)N(CCCCN1CCC(N3CCCC3)CC1)c1ccccc1S2 [Example 42, 10-(4-(4-(pyrrolidin-1-yl)piperidin-1-yl)butyl)-2-(trifluoromethyl)-10H-phenothiazine] | 134 | – | – |
| FC(F)(F)c1ccc2c(c1)N(CCCCN1CCC(N3CCCCC3)CC1)c1ccccc1S2 [Example 43, 10-(4-(1,4′-bipiperidin-1′-yl)butyl)-2-(trifluoromethyl)-10H-phenothiazine] | 123 | – | – |
| CSc1ccc2c(c1)N(CCCCN1CCC(N3CCCC3)CC1)c1ccccc1S2 [Example 52, 2-(methylthio)-10-(4-(4-(pyrrolidin-1-yl)piperidin-1-yl)butyl)-10H-phenothiazine] | 150 | – | – |
| CSc1ccc2c(c1)N(CCCN1CCC(N3CCCC3)CC1)c1ccccc1S2 [Example 55, 2-(methylthio)-10-(3-(4-(pyrrolidin-1-yl)piperidin-1-yl)propyl)-10H-phenothiazine] | 114 | – | – |
| Clc1ccc2c(c1)N(CCCN1CCC(N3CCCCC3)CC1)c1ccccc1S2 [Example 69, 10-(3-(1,4′-bipiperidin-1′-yl)propyl)-2-chloro-10H-phenothiazine] | 124 | – | – |
| CSc1ccc2c(c1)N(CCCCN1CCC(N3CCCCC3)CC1)c1ccccc1S2 [Example 72, 10-(4-(1,4′-bipiperidin-1′-yl)butyl)-2-(methylthio)-10H-phenothiazine] | 131 | – | – |
| CC1CCN(CCCCN2c3ccccc3Sc3ccc(F)cc32)CC1 [Example 76, 2-fluoro-10-(4-(4-methylpiperidin-1-yl)butyl)-10H-phenothiazine] | 110 | – | – |
| Fc1ccc2c(c1)N(CCCCN1CCC(N3CCCC3)CC1)c1ccccc1S2 [Example 77, 2-fluoro-10-(4-(4-(pyrrolidin-1-yl)piperidin-1-yl)butyl)-10H-phenothiazine] | 149 | – | – |
| CN1CCN(CCCN2c3ccccc3Sc3ccc(C(F)(F)F)cc32)CC1 [TFP, trifluoperazine] | 100 | suppresses the migration and proliferation of lung cancer | inhibits the invasion of cancer cells |
